Data taken from ChEMBL document CHEMBL6134844, “Development of Next-Generation Antimalarial Acridones with Radical Cure Potential” (J Med Chem, 2025).
Active and inactive are the calls of the source. No cut-off for these calls is given here.

Columns and labels:
Plasmodium falciparum [1] = experiment: Antiplasmodial activity against asexual blood-stage (ABS) CQ-sensitive Plasmodium falciparum D6 infected in human erythrocytes assessed as reduction in fluorescence measured after 72 hrs by Malaria SYBR Green I-based Fluorescence (MSF) assay; type: functional, organism-based; details: D6, Erythrocyte
Plasmodium falciparum [2] = experiment: Antiplasmodial activity against asexual blood-stage (ABS) MDR Plasmodium falciparum Dd2 infected in human erythrocytes assessed as reduction in fluorescence measured after 72 hrs by Malaria SYBR Green I-based Fluorescence (MSF) assay; type: functional, organism-based; details: Dd2, Erythrocyte
Plasmodium falciparum [3] = experiment: Antiplasmodial activity against asexual blood-stage (ABS) ATV-resistant clinical isolate Plasmodium falciparum Tm90-C2B infected in human erythrocytes assessed as reduction in fluorescence measured after 72 hrs by Malaria SYBR Green I-based Fluorescence (MSF) assay; type: functional, organism-based; details: Erythrocyte
HepG2 = experiment: Cytotoxicity against human HepG2 cells assessed as cell viability measured after 48 hrs by MTT assay; type: functional, cell-based; details: HepG2, 48 h
Plasmodium cynomolgi [4] = experiment: (§1) Antiplasmodial activity against hypnozoite Plasmodium cynomolgi B strain infected in Macaca mulatta hepatocytes incubated with sporozoite containing salivary gland homogenate obtained from dissected Anopheles dirus mosquitoes (infected with Plasmodium cynomolgi B strain) treatment started on day 4 post infection and continued daily for 4 days into fresh changed media until day 8 assessed as Liver stage (LS) activity by measuring radical cure mode by immunofluorescent staining analysis; type: functional, organism-based; details: Hepatocyte
Plasmodium cynomolgi [5] = experiment: as §1, with “schizont” for “hypnozoite”; type: functional, organism-based; details: Hepatocyte
[6] = as §1, with “Selectivity index, ratio of CC50 for Macaca mulatta hepatocytes to IC50 for antiplasmodial” for “Antiplasmodial”, “prophylactic” for “radical cure”; type: toxicity, cell-based; details: rhesus monkey, read-out: Selectivity Index
[7] = as §1, with “Selectivity index, ratio of CC50 for Macaca mulatta hepatocytes to IC50 for antiplasmodial” for “Antiplasmodial”, “schizont” for “hypnozoite”, “prophylactic” for “radical cure”; type: toxicity, cell-based; details: rhesus monkey, read-out: Selectivity Index
[8] = as §1, with “Selectivity index, ratio of CC50 for Macaca mulatta hepatocytes to IC50 for antiplasmodial” for “Antiplasmodial”; type: toxicity, cell-based; details: rhesus monkey, read-out: Selectivity Index
[9] = as §1, with “Selectivity index, ratio of CC50 for Macaca mulatta hepatocytes to IC50 for antiplasmodial” for “Antiplasmodial”, “schizont” for “hypnozoite”; type: toxicity, cell-based; details: rhesus monkey, read-out: Selectivity Index
[10] = Cmax in male ICR-CD1 mouse liver at 40 mg/kg, po; type: ADME, organism-based
[11] = Cmax in male ICR-CD1 mouse plasma at 40 mg/kg, po; type: ADME, organism-based
[12] = Tmax in male ICR-CD1 mouse liver at 40 mg/kg, po; type: ADME, organism-based
[13] = Tmax in male ICR-CD1 mouse plasma at 40 mg/kg, po; type: ADME, organism-based
[14] = Half life in male ICR-CD1 mouse liver at 40 mg/kg, po; type: ADME, organism-based
[15] = AUClast in male ICR-CD1 mouse plasma at 40 mg/kg, po; type: ADME, organism-based
[16] = AUCextrap in male ICR-CD1 mouse liver at 40 mg/kg, po; type: ADME, organism-based
[17] = AUC(0 to infinity) in male ICR-CD1 mouse liver at 40 mg/kg, po; type: ADME, organism-based
[18] = Apparent oral clearance in male ICR-CD1 mouse liver at 40 mg/kg, po; type: ADME, organism-based
[19] = MRTlast in male ICR-CD1 mouse liver at 40 mg/kg, po; type: ADME, organism-based
[20] = MRTlast in male ICR-CD1 mouse plasma at 40 mg/kg, po; type: ADME, organism-based
Plasmodium yoelii [21] = experiment: In vivo antiplasmodial activity against asexual blood-stage (ABS) Plasmodium yoelii MRA-428 infected in 4-day suppression CF1 mouse model assessed as reduction in parasitemia by measuring cured mouse at 60 mg/kg, po single dose treated 24 hrs post infection; type: functional, organism-based
Plasmodium yoelii [22] = experiment: In vivo antiplasmodial activity against asexual blood-stage (ABS) Plasmodium yoelii MRA-428 infected in 4-day suppression CF1 mouse model assessed as reduction in parasitemia by measuring cured mouse at 100 mg/kg, po single dose treated 24 hrs post infection; type: functional, organism-based
[23] = Toxicity in CF1 mouse infected with asexual blood-stage (ABS) Plasmodium yoelii MRA-428 assessed as clinical toxicity at 0.3 to 30 mg/kg, po treated 24 hrs post infection measured after 4 days; type: organism-based; details: in vivo, dose 0.3-30 mg/kg
[24] = Toxicity in CF1 mouse infected with asexual blood-stage (ABS) Plasmodium yoelii MRA-428 assessed as behavioural change at 0.3 to 30 mg/kg, po treated 24 hrs post infection measured after 4 days; type: organism-based; details: in vivo, dose 0.3-30 mg/kg
Plasmodium berghei = experiment: In vivo antiplasmodial activity against luciferase expressing liver stage Plasmodium berghei ANKA MRA-868 sporozoites infected in Albino C57BL/6 mouse model assessed as visible parasites at 40 mg/kg, po daily measured 24 to 48 hrs by real-time In Vivo Imaging System (IVIS); type: functional, organism-based; details: time 24-48 hrs
[25] = Toxicity in CF1 mouse infected with asexual blood-stage (ABS) Plasmodium yoelii MRA-428 assessed as hunching at 0.3 to 30 mg/kg, po treated 24 hrs post infection measured after 4 days; type: organism-based; details: in vivo, 96 h, dose 0.3-30 mg/kg, time 4 day
[26] = Toxicity in CF1 mouse infected with asexual blood-stage (ABS) Plasmodium yoelii MRA-428 assessed as hyperactivity at 0.3 to 30 mg/kg, po treated 24 hrs post infection measured after 4 days; type: organism-based; details: in vivo, 96 h, dose 0.3-30 mg/kg, time 4 day
[27] = Toxicity in CF1 mouse infected with asexual blood-stage (ABS) Plasmodium yoelii MRA-428 assessed as lethargy at 0.3 to 30 mg/kg, po treated 24 hrs post infection measured after 4 days; type: organism-based; details: in vivo, 96 h, dose 0.3-30 mg/kg, time 4 day
[28] = Toxicity in CF1 mouse infected with asexual blood-stage (ABS) Plasmodium yoelii MRA-428 assessed as ruffled hair at 0.3 to 30 mg/kg, po treated 24 hrs post infection measured after 4 days; type: organism-based; details: in vivo, 96 h, dose 0.3-30 mg/kg, time 4 day
[29] = Toxicity in CF1 mouse infected with asexual blood-stage (ABS) Plasmodium yoelii MRA-428 assessed as weight loss at 0.3 to 30 mg/kg, po treated 24 hrs post infection measured after 4 days; type: organism-based; details: in vivo, 96 h, dose 0.3-30 mg/kg, time 4 day
[30] = Mutagenicity in Salmonella typhimurium TA100 assessed as background reversion rate up to 10 uM with S-9 metabolic activation by AMES test; type: toxicity; details: salmonella enterica subsp. enterica serovar typhimurium
[31] = Mutagenicity in Salmonella typhimurium TA98 assessed as background reversion rate up to 10 uM with S-9 metabolic activation by AMES test; type: toxicity; details: salmonella enterica subsp. enterica serovar typhimurium
[32] = Mutagenicity in Salmonella typhimurium TA100 assessed as background reversion rate up to 10 uM without S-9 metabolic activation by AMES test; type: toxicity; details: salmonella enterica subsp. enterica serovar typhimurium
[33] = Mutagenicity in Salmonella typhimurium TA98 assessed as background reversion rate up to 10 uM without S-9 metabolic activation by AMES test; type: toxicity; details: salmonella enterica subsp. enterica serovar typhimurium
[34] = mouse, microsomes, 1 h

| SMILES | IC50 (Plasmodium falciparum [1]) | IC50 (Plasmodium falciparum [2]) | IC50 (Plasmodium falciparum [3]) | IC50 (HepG2) | IC50 (Plasmodium cynomolgi [4]) | IC50 (Plasmodium cynomolgi [5]) | selectivity ratio at 96 h [6] | selectivity ratio at 96 h [7] | selectivity ratio at 96 h [8] | selectivity ratio at 96 h [9] | Cmax [10] | Cmax [11] | Tmax [12] | Tmax [13] | half-life [14] | AUC(0-t) [15] | AUC [16] | AUC(0-inf) [17] | CL/F [18] | MRT last [19] | also measured |
| --- | --- | --- | --- | --- | --- | --- | --- | --- | --- | --- | --- | --- | --- | --- | --- | --- | --- | --- | --- | --- | --- |
| O=c1c2c([nH]c3cc(Oc4ccc(OC(F)(F)F)cc4)ccc13)CCCC2 | 0.31 nM | 0.253 nM | 0.295 nM | 99400 nM | 550 nM | 380 nM | 1.79 | 4.69 | 1.11 | 1.61 | 6080 ng/mL | 83 ng/mL | 4 h | 1 h | 2.84 h | 472 ng·h/mL | 0.12% | 33000 ng·h/mL | 0.542 mL/min/kg | 5.16 h | MRT last [20]: 4.1 h; Activity (Plasmodium yoelii [21]): Active; Activity (Plasmodium yoelii [22]): Active; Activity [23]: Non-toxic; Activity [24]: Non-toxic; Activity (Plasmodium berghei): Active; Activity [25]: Non-toxic; Activity [26]: Non-toxic; Activity [27]: Non-toxic; Activity [28]: Non-toxic; Activity [29]: Non-toxic; Activity [30]: Non-toxic; Activity [31]: Non-toxic; Activity [32]: Non-toxic; Activity [33]: Non-toxic; CLH [34]: 117 µL/min/mg |
| O=c1c2c([nH]c3cc(Oc4ccc(OC(F)(F)F)cc4)c(F)cc13)CCCC2 | 0.015 nM | 0.268 nM | 0.384 nM | > 200000 nM | 2080 nM | 2410 nM | 5.18 | 31.1 | 1.49 | 1.29 | 654 ng/mL | 42.1 ng/mL | 0.5 h | 1 h | 4.3 h | 167 ng·h/mL | 0.603% | 5510 ng·h/mL | 3.58 mL/min/kg | 5.64 h | MRT last [20]: 2.95 h; Activity (Plasmodium yoelii [21]): Active; Activity (Plasmodium yoelii [22]): Active; Activity [23]: Non-toxic; Activity [24]: Non-toxic; Activity (Plasmodium berghei): Active; Activity [25]: Non-toxic; Activity [26]: Non-toxic; Activity [27]: Non-toxic; Activity [28]: Non-toxic; Activity [29]: Non-toxic; Activity [30]: Non-toxic; Activity [31]: Non-toxic; Activity [32]: Non-toxic; Activity [33]: Non-toxic; CLH [34]: 74.9 µL/min/mg |
